# Results taken from PubChem BioAssay AID1963434 (Molecular Pharmacology Branch, DTP, NCI, 2024).
# Tested on: 755483-174-R-J1-PDC complex spheroid growth, percent test/control
# Test: Anticancer human tumor 755483-174-R-J1-PDC patient-derived rhabdomyosarcoma cell line growth inhibition [Asc]
# Details: for IC50: curve of first compound; for viability, T/C: stronger effect = lower value
# How it was run: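 Complex solid-tumor spheroids incorporating human endothelial and mesenchymal stem cells received single agents or combinations over half-log dilution ranges anchored to clinical Cmax.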
# [1] = second compound 0.01 µM, first compound 0.0316 µM
# [2] = second compound 0.01 µM, first compound 0.1 µM
# [3] = second compound 0.0316 µM, first compound 0.0316 µM
# [4] = second compound 0.0316 µM, first compound 0.1 µM
# [5] = second compound 0.1 µM, first compound 0.0316 µM
# [6] = second compound 0.1 µM, first compound 0.1 µM
# [7] = second compound 0.316 µM, first compound 0.0316 µM
# [8] = second compound 0.316 µM, first compound 0.1 µM
# [9] = second compound 1 µM, first compound 0.0316 µM
# [10] = second compound 1 µM, first compound 0.1 µM
# 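Further: spheroids exposed to compounds for seven days before readout.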
structure (smiles),measurement,setting,value
Cc1nc(N2CCC3(CC2)COC(C)C3N)c(CO)nc1Sc1ccnc(N)c1Cl (stereo not given) + CCN1C(C(=O)NC23CCC(C(=O)O)(CC2)CC3)C(c2cccc(Cl)c2F)C2(C(=O)Nc3cc(Cl)ccc32)C12CCCCC2,IC50,second compound 0.03 µM,442 nM
same,IC50,second compound 0.0949 µM,371 nM
same,IC50,second compound 0.3 µM,387 nM
same,IC50,second compound 0.949 µM,232 nM
same,IC50,second compound 3 µM,315 nM
same,"viability, T/C","second compound 0.03 µM, first compound 0.00949 µM",111%
same,"viability, T/C","second compound 0.03 µM, first compound 0.03 µM",93.4%
same,"viability, T/C","second compound 0.03 µM, first compound 0.0949 µM",80.7%
same,"viability, T/C","second compound 0.03 µM, first compound 0.3 µM",58.6%
same,"viability, T/C","second compound 0.03 µM, first compound 0.949 µM",33.4%
same,"viability, T/C","second compound 0.03 µM, first compound 3 µM",19.6%
same,"viability, T/C","second compound 0.0949 µM, first compound 0.00949 µM",113%
same,"viability, T/C","second compound 0.0949 µM, first compound 0.03 µM",106%
same,"viability, T/C","second compound 0.0949 µM, first compound 0.0949 µM",106%
same,"viability, T/C","second compound 0.0949 µM, first compound 0.3 µM",52.9%
same,"viability, T/C","second compound 0.0949 µM, first compound 0.949 µM",39.2%
same,"viability, T/C","second compound 0.0949 µM, first compound 3 µM",21.1%
same,"viability, T/C","second compound 0.3 µM, first compound 0.00949 µM",89.5%
same,"viability, T/C","second compound 0.3 µM, first compound 0.03 µM",87.6%
same,"viability, T/C","second compound 0.3 µM, first compound 0.0949 µM",62.1%
same,"viability, T/C","second compound 0.3 µM, first compound 0.3 µM",51.6%
same,"viability, T/C","second compound 0.3 µM, first compound 0.949 µM",42.5%
same,"viability, T/C","second compound 0.3 µM, first compound 3 µM",18.5%
same,"viability, T/C","second compound 0.949 µM, first compound 0.00949 µM",105%
same,"viability, T/C","second compound 0.949 µM, first compound 0.03 µM",82.9%
same,"viability, T/C","second compound 0.949 µM, first compound 0.0949 µM",84.1%
same,"viability, T/C","second compound 0.949 µM, first compound 0.3 µM",40.1%
same,"viability, T/C","second compound 0.949 µM, first compound 0.949 µM",24.9%
same,"viability, T/C","second compound 0.949 µM, first compound 3 µM",27.1%
same,"viability, T/C","second compound 3 µM, first compound 0.00949 µM",111%
same,"viability, T/C","second compound 3 µM, first compound 0.03 µM",82.9%
same,"viability, T/C","second compound 3 µM, first compound 0.0949 µM",71.9%
same,"viability, T/C","second compound 3 µM, first compound 0.3 µM",50.1%
same,"viability, T/C","second compound 3 µM, first compound 0.949 µM",34.3%
same,"viability, T/C","second compound 3 µM, first compound 3 µM",21.1%
Cn1ncnc1[C@H]1c2n[nH]c(=O)c3cc(F)cc(c23)N[C@@H]1c1ccc(F)cc1 + CNC(C)C(=O)NC1CN(S(=O)(=O)c2cccc(S(=O)(=O)N3CCC4CCC(C(=O)NC(c5ccccc5)c5ccccc5)N4C(=O)C(NC(=O)C(C)NC)C3)c2)CCC2CCC(C(=O)NC(c3ccccc3)c3ccccc3)N2C1=O,IC50,second compound 0.01 µM,< 0.316 nM
same,IC50,second compound 0.0316 µM,< 0.316 nM
same,IC50,second compound 0.1 µM,< 0.316 nM
same,IC50,second compound 0.316 µM,< 0.316 nM
same,IC50,second compound 1 µM,< 0.316 nM
same,"viability, T/C","second compound 0.01 µM, first compound 0.000316 µM",39.3%
same,"viability, T/C","second compound 0.01 µM, first compound 0.001 µM",45.2%
same,"viability, T/C","second compound 0.01 µM, first compound 0.00316 µM",45.5%
same,"viability, T/C","second compound 0.01 µM, first compound 0.01 µM",30.9%
same,"viability, T/C",[1],26.4%
same,"viability, T/C",[2],18.1%
same,"viability, T/C","second compound 0.0316 µM, first compound 0.000316 µM",36.2%
same,"viability, T/C","second compound 0.0316 µM, first compound 0.001 µM",42.9%
same,"viability, T/C","second compound 0.0316 µM, first compound 0.00316 µM",33.4%
same,"viability, T/C","second compound 0.0316 µM, first compound 0.01 µM",16.2%
same,"viability, T/C",[3],18.1%
same,"viability, T/C",[4],12.7%
same,"viability, T/C","second compound 0.1 µM, first compound 0.000316 µM",26.2%
same,"viability, T/C","second compound 0.1 µM, first compound 0.001 µM",33.2%
same,"viability, T/C","second compound 0.1 µM, first compound 0.00316 µM",25.4%
same,"viability, T/C","second compound 0.1 µM, first compound 0.01 µM",14.4%
same,"viability, T/C",[5],13.7%
same,"viability, T/C",[6],9.96%
same,"viability, T/C","second compound 0.316 µM, first compound 0.000316 µM",31.5%
same,"viability, T/C","second compound 0.316 µM, first compound 0.001 µM",23.6%
same,"viability, T/C","second compound 0.316 µM, first compound 0.00316 µM",17.2%
same,"viability, T/C","second compound 0.316 µM, first compound 0.01 µM",14.7%
same,"viability, T/C",[7],6.84%
same,"viability, T/C",[8],9.04%
same,"viability, T/C","second compound 1 µM, first compound 0.000316 µM",13.7%
same,"viability, T/C","second compound 1 µM, first compound 0.001 µM",19.7%
same,"viability, T/C","second compound 1 µM, first compound 0.00316 µM",9.69%
same,"viability, T/C","second compound 1 µM, first compound 0.01 µM",9.82%
same,"viability, T/C",[9],9.01%
same,"viability, T/C",[10],7.46%
O=C(c1cc(Cc2n[nH]c(=O)c3ccccc23)ccc1F)N1CCN(C(=O)C2CC2)CC1 + CNC(C)C(=O)NC1CN(S(=O)(=O)c2cccc(S(=O)(=O)N3CCC4CCC(C(=O)NC(c5ccccc5)c5ccccc5)N4C(=O)C(NC(=O)C(C)NC)C3)c2)CCC2CCC(C(=O)NC(c3ccccc3)c3ccccc3)N2C1=O,IC50,second compound 0.01 µM,< 31.6 nM
same,IC50,second compound 0.0316 µM,< 31.6 nM
same,IC50,second compound 0.1 µM,< 31.6 nM
same,IC50,second compound 0.316 µM,< 31.6 nM
same,IC50,second compound 1 µM,< 31.6 nM
same,"viability, T/C",[1],41.7%
same,"viability, T/C",[2],41.1%
same,"viability, T/C","second compound 0.01 µM, first compound 0.316 µM",34.5%
same,"viability, T/C","second compound 0.01 µM, first compound 1 µM",27.5%
same,"viability, T/C","second compound 0.01 µM, first compound 3.16 µM",24.1%
same,"viability, T/C","second compound 0.01 µM, first compound 10 µM",12%
same,"viability, T/C",[3],35.3%
same,"viability, T/C",[4],34.3%
same,"viability, T/C","second compound 0.0316 µM, first compound 0.316 µM",24.3%
same,"viability, T/C","second compound 0.0316 µM, first compound 1 µM",21.3%
same,"viability, T/C","second compound 0.0316 µM, first compound 3.16 µM",17.9%
same,"viability, T/C","second compound 0.0316 µM, first compound 10 µM",9.95%
same,"viability, T/C",[5],27.2%
same,"viability, T/C",[6],40.2%
same,"viability, T/C","second compound 0.1 µM, first compound 0.316 µM",28.5%
same,"viability, T/C","second compound 0.1 µM, first compound 1 µM",23.6%
same,"viability, T/C","second compound 0.1 µM, first compound 3.16 µM",15.5%
same,"viability, T/C","second compound 0.1 µM, first compound 10 µM",7.57%
same,"viability, T/C",[7],29.5%
same,"viability, T/C",[8],40.1%
same,"viability, T/C","second compound 0.316 µM, first compound 0.316 µM",23.3%
same,"viability, T/C","second compound 0.316 µM, first compound 1 µM",15.7%
same,"viability, T/C","second compound 0.316 µM, first compound 3.16 µM",8.99%
same,"viability, T/C","second compound 0.316 µM, first compound 10 µM",3.81%
same,"viability, T/C",[9],16.7%
same,"viability, T/C",[10],17.2%
same,"viability, T/C","second compound 1 µM, first compound 0.316 µM",6.88%
same,"viability, T/C","second compound 1 µM, first compound 1 µM",6.73%
same,"viability, T/C","second compound 1 µM, first compound 3.16 µM",8.78%
same,"viability, T/C","second compound 1 µM, first compound 10 µM",3.7%
